Assay results published in patent publication US4207320A, “Amino-substituted imidazo[1,2-a:3,4-a']diquinolin-15-ium salts compositions and method of use” (Warner-Lambert Company, priority 1978, dated 1980).

What was measured:
C. parapsilosis [1] = experiment: Broth Tube Dilution Test, minimal fungicidal concentration; format: cell-based, Candida parapsilosis; conditions: Lodderomyces parapsilosis, 28° C., 24 hours later
Protocol: (§1) The test compounds are serially diluted in pure dimethylformamide, giving a concentration of 4000, 800, 160 and 32 micrograms/milliliters(μg./ml.).A further dilution (typically a 2-fold or a 5-fold dilution) is made from each of the above serial dilutions into tubes containing 9.4 ml. BactoSabouraud Dextrose Broth, resulting in a set of broth tubes with specific final drug concentrations for which activity is to be determined. Each of the broth tubes is then inoculated with 0.5 ml. of a stock suspension of the same test organism. After inoculation, all of the tubes are incubated at 28° C. The tubes are read 48 hours to 7 days post inoculation, depending on the organism being tested. The lowest concentration of test compound at which growth of the organism is prevented in the broth tubes is taken as the minimal inhibitory concentration (MIC). The Broth+Serum Dilution Test is performed in the same manner as the Broth Tube Dilution Test except that the liquid medium consists of 50% BactoSabouraud Dextrose Broth and 50% normal calf serum from citrated blood. […] The tubes are then read and the lowest concentration of test compound for which there is no growth of the organism in the broth tube is taken as the minimal fungicidal concentration (MFC).

Geotrichum candidum [2] = experiment: as above; format: cell-based; conditions: 28° C., 24 hours later
Protocol: (§2) The test compounds are serially diluted in pure dimethylformamide, giving a concentration of 4000, 800, 160 and 32 micrograms/milliliters(μg./ml.).A further dilution (typically a 2-fold or a 5-fold dilution) is made from each of the above serial dilutions into tubes containing 9.4 ml. BactoSabouraud Dextrose Broth, resulting in a set of broth tubes with specific final drug concentrations for which activity is to be determined. Each of the broth tubes is then inoculated with 0.5 ml. of a stock suspension of the same test organism. After inoculation, all of the tubes are incubated at 28° C. The tubes are read 48 hours to 7 days post inoculation, depending on the organism being tested. The lowest concentration of test compound at which growth of the organism is prevented in the broth tubes is taken as the minimal inhibitory concentration (MIC). The Broth+Serum Dilution Test is performed in the same manner as the Broth Tube Dilution Test except that the liquid medium consists of 50% BactoSabouraud Dextrose Broth and 50% normal calf serum from citrated blood. Minimal Fungicidal Concentrations (MFC) For a determination of fungicidal activity, the broth tubes described above are incubated at 28° C. for 48 hours and then serially diluted 1:100 into Bacto-Sabouraud Dextrose Broth and incubated again for 48 hours. The tubes are then read and the lowest concentration of test compound for which there is no growth of the organism in the broth tube is taken as the minimal fungicidal concentration (MFC).

C. albicans [3] = experiment: as above; format: cell-based; conditions: Candida albicans, 28° C., 24 hours later
Protocol: as §2

C. tropicalis [4] = experiment: as above; format: cell-based; conditions: Candida tropicalis, 28° C., 24 hours later
Protocol: as §2

C. stellatoidea [5] = experiment: as above; format: cell-based; conditions: Candida albicans, 28° C., 24 hours later
Protocol: as §2

C. krusei [6] = experiment: Broth Tube Dilution Test, minimal inhibitory concentration; format: cell-based, Candida krusei; conditions: Pichia kudriavzevii, 28° C., at 72
Protocol: (§3) Minimal Inhibitory Concentration (MIC) The test compounds are serially diluted in pure dimethylformamide, giving a concentration of 4000, 800, 160 and 32 micrograms/milliliters(μg./ml.).A further dilution (typically a 2-fold or a 5-fold dilution) is made from each of the above serial dilutions into tubes containing 9.4 ml. BactoSabouraud Dextrose Broth, resulting in a set of broth tubes with specific final drug concentrations for which activity is to be determined. Each of the broth tubes is then inoculated with 0.5 ml. of a stock suspension of the same test organism. After inoculation, all of the tubes are incubated at 28° C. The tubes are read 48 hours to 7 days post inoculation, depending on the organism being tested. The lowest concentration of test compound at which growth of the organism is prevented in the broth tubes is taken as the minimal inhibitory concentration (MIC). The Broth+Serum Dilution Test is performed in the same manner as the Broth Tube Dilution Test except that the liquid medium consists of 50% BactoSabouraud Dextrose Broth and 50% normal calf serum from citrated blood.

C. parapsilosis [7] = experiment: as above; format: cell-based, Candida parapsilosis; conditions: Lodderomyces parapsilosis, 28° C., at 72
Protocol: as §3

C. krusei [8] = experiment: Broth Tube Dilution Test, minimal fungicidal concentration; format: cell-based, Candida krusei; conditions: Pichia kudriavzevii, 28° C., 24 hours later
Protocol: as §1

Geotrichum candidum [9] = experiment: Broth Tube Dilution Test, minimal inhibitory concentration; format: cell-based; conditions: 28° C., at 72
Protocol: as §3

C. albicans [10] = experiment: as above; format: cell-based; conditions: Candida albicans, 28° C., at 72
Protocol: as §3

C. tropicalis [11] = experiment: as above; format: cell-based; conditions: Candida tropicalis, 28° C., at 72
Protocol: as §3

C. stellatoidea [12] = experiment: as above; format: cell-based; conditions: Candida albicans, 28° C., at 72
Protocol: as §3

C. guilliermondi [13] = experiment: as above; format: cell-based, Candida gulliermondi; conditions: Candida, 28° C., at 72
Protocol: as §3

C. guilliermondi [14] = experiment: Broth Tube Dilution Test, minimal fungicidal concentration; format: cell-based, Candida gulliermondi; conditions: Candida, 28° C., 24 hours later
Protocol: as §1

MIC (C. krusei [6]) [µg/mL]	MIC (C. parapsilosis [7]) [µg/mL]	MIC (Geotrichum candidum [9]) [µg/mL]	MIC (C. albicans [10]) [µg/mL]	MIC (C. tropicalis [11]) [µg/mL]	MIC (C. stellatoidea [12]) [µg/mL]	MIC (C. guilliermondi [13]) [µg/mL]	SMILES	MFC (C. parapsilosis [1]) [µg/mL]	MFC (Geotrichum candidum [2]) [µg/mL]	MFC (C. albicans [3]) [µg/mL]	MFC (C. tropicalis [4]) [µg/mL]	MFC (C. stellatoidea [5]) [µg/mL]	MFC (C. krusei [8]) [µg/mL]	MFC (C. guilliermondi [14]) [µg/mL]
10	10	10	10	> 10	2.61	2.5	CC(C)(C)c1ccc2c(ccc3c[n+]4c5ccc(N6CCCC6)cc5ccc4n32)c1.[Cl-] [Example 7, 10-(1,1-Dimethylethyl)-3-(1-pyrrolidinyl)imidazo[1,2-a:3,4-a']diquinolin-15-ium Chloride]	> 10	> 10	10	> 10	5	10	2.5
2.5	5	5	2.5	10	1.25	10	CCc1ccc2c(ccc3c[n+]4c5ccc(N6CCCC6)cc5ccc4n32)c1.[Cl-] [Example 26, 10-Ethyl-3-(1-pyrrolidinyl)imidazo[1,2-a: 3,4-a']diquinolin-15-ium chloride]	> 10	> 10	2.5	> 10	5	2.5	> 10
